Measured values published in PMC9421654, “Discovery of Substituted Di(pyridin-2-yl)-1,2,4-thiadiazol-5-amines as Novel Macrofilaricidal Compounds for the Treatment of Human Filarial Infections” (Journal of Medicinal Chemistry, 2022).
Values after ≈ are worked out from the molar mass of the structure shown. Values joined by “and” are separate entries in the source; they are usually repeats but may differ in a detail not shown here. Identical values can stand only once. Like-named read-outs stand apart in the source and are kept apart here. Marks after values point to notes of the source that are not given here.

How the values were obtained:
[1] = LogD measurement (octanol-water); format: physicochemical
Outline: (§1)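 Human and rat liver microsomes (0.3 mg/mL) with 1 mM NADPH and 3µM substrate, 30 minutes at 37 °C in pH 7.4 phosphate/MgCl2, triplicate; LC-MS/MS percentage remaining. LogD: octanol/aqueous buffer (pH 7.4, 2.2, 6.8, 5), 24 h shaking at room temperature. Kinetic solubility: 200 µM, 2% DMSO, 24 h, filtered.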

[2] = system: O. gutturosa adult male worms; test: O. gutturosa adult worm ex vivo assay, motility; format: cell-based, Onchocerca gutturosa; details: Onchocerca gutturosa
Outline: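 Adult male O. gutturosa from naturally infected cattle were cultured in supplemented MEM at 37 °C, 5% CO2, with four worms per concentration in serial 1-in-4 dilutions. Motility (0–10 scale) was scored every 24 h to 120 h. EC50 (geomean, n=2) for motility reduction came from 4PL fits, and viability was checked by MTT at 120 h.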

[3] = Kinetic solubility measurement; format: physicochemical; details: for solubility kinetic at 24 h: 10 mM DMSO stock solutions
Outline: as §1

[4] = Liver microsome metabolic stability assay, human; format: in vitro ADME; details: 3 μM, 30 min
Experimental: (§2) Liver Microsome Metabolic Stability Assay: Incubations were performed at 37 °C in a Dubnoff Shaking water bath using 2 mL 96-well incubation plates. Liver microsome protein concentration was 0.3 mg/mL the final concentration of NADPH was 1 mM. Substrate concentrations are 3µM, incubation time is 30 minutes, and all tests are done in triplicate. The incubation was conducted in 200 mM Phosphate buffer containing 2 mM magnesium chloride, pH=7.4 and the total incubation volume was 0.5 mL. Samples were analyzed via LC-MS/MS and reported as percentage remaining after 30minute incubation, which can then be converted to half-life and intrinsic clearance. […]

[5] = Liver microsome metabolic stability assay, mouse; format: in vitro ADME; details: 3 μM, 30 min; for Rat Microsomes: Tables 2 and 3, footnote: tested in the mouse liver microsome assay
Experimental: as §2

[6] = system: O. gutturosa adult male worms; test: O. gutturosa adult worm ex vivo assay, MTT/formazan viability; format: cell-based, Onchocerca gutturosa; details: Onchocerca gutturosa, supplement; SD in brackets in the PDF table; read-out: O. gutturosa EC50 (uM) MTT viability inhibition
Outline: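 Adult male worms from naturally infected Gambian cattle were kept individually in MEM with 10% newborn calf serum at 37 °C, 5% CO2; four worms per concentration. Motility was scored 0-10 every 24 h to 120 h as a percentage of maximum, with ≥50% reduction versus untreated counted active. Afterwards, MTT (0.5 mg/mL, 30 min) formazan was read at 490 nm.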

[7] = Liver microsome metabolic stability assay, rat; format: in vitro ADME; details: Table 1; 3 μM, 30 min
Experimental: as §2

Mouse pharmacokinetics = format: in vivo; details: male CD-1 mouse, PO 30 mg/kg suspension
Description: All animal experiments were approved by the Institutional Animal Care and Use Committee (IACUC) of Bristol Myers Squibb.

THLE-2 cells = test: THLE-2 cytotoxicity assay (ATP); details: Homo sapiens, THLE-2, 24 h, read-out: THLE IC50
Experimental: In vitro cytotoxicity of select compounds was tested in a “normal” proliferating transformed human liver epithelial (THLE-2) cell line.[35] Compounds were incubated in THLE-2 cells for 24 and 72 h, and adenosine triphosphate (ATP) levels were used as an indicator of cell viability.
THLE-2 Cytotoxicity Assay: THLE-2 cells (ATCC, catalog #CRL-2706) were plated in LHC-8 Media (Invitrogen, catalog #12679015) supplemented with fetal bovine serum (GE, catalog #SH30088.03), 70 ng/mL phosphoethanolamine (Sigma, catalog #P0503), 5 ng/mL EGF (Sigma, catalog #E9644), 1X penicillin/streptomycin (Gibco, catalog #15140148), and 1X glutamine (Invitrogen, catalog #25030024) in 384-well clear-bottom, black walled plates at a density of 3750 cells/well (15μL/well). After plating, cells were incubated overnight at 37°C in an incubator with 5% CO2 and 90% humidity. Compounds were first serially diluted in dimethyl sulfoxide then diluted in LHC-8 media growth media to 2X concentration. Cells were dosed with 15μL of each dose for final concentrations between 0.01 – 300 μM. Cells were incubated with compounds for 24 or 72 hours. Cytotoxicity was determined with Cell Titer Glo Luminescent ATP Assay (Promega, catalog #G7573) according to the manufacturer’s instructions. Tamoxifen (Sigma, catalog #BC9353476) was used as a positive control. levels at each dose were normalized to that of cells dosed with dimethyl sulfoxide vehicle alone and IC50 values were calculated from non-linear regression fits of dose-response curves plotted

P-glycoprotein (MDR1) = target: T1, P-glycoprotein (MDR1) (Homo sapiens, UniProt P08183); test: MDCK/MDR1 permeability and efflux; format: in vitro ADME; details: dog
T1 construct: expressed in transfected cells; host or cells: MDCK (Madin Darby canine kidney) cells
T1 sequence (P08183 whole entry): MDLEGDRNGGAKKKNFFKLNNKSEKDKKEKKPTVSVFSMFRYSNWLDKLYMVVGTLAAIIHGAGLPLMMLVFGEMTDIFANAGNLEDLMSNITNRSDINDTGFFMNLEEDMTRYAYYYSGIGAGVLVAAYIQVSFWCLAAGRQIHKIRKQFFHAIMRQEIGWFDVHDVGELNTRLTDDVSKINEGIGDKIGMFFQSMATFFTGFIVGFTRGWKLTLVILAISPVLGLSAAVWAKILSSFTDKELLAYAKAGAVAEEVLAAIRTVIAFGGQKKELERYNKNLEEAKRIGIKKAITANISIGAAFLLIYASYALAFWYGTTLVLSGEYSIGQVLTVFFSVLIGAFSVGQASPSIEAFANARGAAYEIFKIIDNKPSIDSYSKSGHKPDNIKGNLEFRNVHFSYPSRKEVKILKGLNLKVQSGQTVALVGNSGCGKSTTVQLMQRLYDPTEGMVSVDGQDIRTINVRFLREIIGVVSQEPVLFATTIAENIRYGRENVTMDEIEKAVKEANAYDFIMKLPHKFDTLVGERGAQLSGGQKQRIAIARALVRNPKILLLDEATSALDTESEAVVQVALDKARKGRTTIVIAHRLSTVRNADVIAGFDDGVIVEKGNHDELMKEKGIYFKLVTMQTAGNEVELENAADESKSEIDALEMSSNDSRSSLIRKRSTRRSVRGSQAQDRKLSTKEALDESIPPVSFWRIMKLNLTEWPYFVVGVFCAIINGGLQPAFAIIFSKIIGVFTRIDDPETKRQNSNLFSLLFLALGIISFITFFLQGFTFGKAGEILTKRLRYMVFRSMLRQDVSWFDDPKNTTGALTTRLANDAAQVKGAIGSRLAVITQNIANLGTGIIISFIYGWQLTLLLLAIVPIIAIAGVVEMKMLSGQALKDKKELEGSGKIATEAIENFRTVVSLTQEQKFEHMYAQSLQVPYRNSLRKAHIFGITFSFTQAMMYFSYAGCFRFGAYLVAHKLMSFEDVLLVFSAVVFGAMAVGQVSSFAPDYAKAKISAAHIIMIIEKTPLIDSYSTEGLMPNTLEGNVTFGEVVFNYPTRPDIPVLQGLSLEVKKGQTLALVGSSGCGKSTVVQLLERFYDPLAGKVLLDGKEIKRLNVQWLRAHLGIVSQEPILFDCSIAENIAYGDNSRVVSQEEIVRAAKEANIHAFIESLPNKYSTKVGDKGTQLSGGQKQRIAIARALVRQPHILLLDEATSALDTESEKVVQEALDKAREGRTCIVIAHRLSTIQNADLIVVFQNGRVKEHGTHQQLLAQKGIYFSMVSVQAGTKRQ
Description: (§3) Our approach was to target compounds with efflux ratio (ER) >2.5 in the MDCK cell line transfected with MDR1 (multidrug resistance-1 transfected Madin Darby canine kidney cell line). […] Our goal was to impart structural elements designed to impart Pgp recognition.

P-gp (MDR1) = target: T2, P-gp (MDR1) (Homo sapiens, UniProt P08183); test: MDCK/MDR1 permeability and efflux; format: in vitro ADME; details: dog
T2 construct: expressed in transfected cells; host or cells: MDCK (Madin Darby canine kidney) cells
T2 sequence (P08183 whole entry): as above
Description: as §3

[8] = target: T3, hERG potassium channels (KCNH2, expressed in HEK293 cells) (Homo sapiens, UniProt Q12809); test: hERG inhibition; format: cell-based; details: supplement
T3 construct: expressed in transfected cells
T3 sequence (Q12809 whole entry): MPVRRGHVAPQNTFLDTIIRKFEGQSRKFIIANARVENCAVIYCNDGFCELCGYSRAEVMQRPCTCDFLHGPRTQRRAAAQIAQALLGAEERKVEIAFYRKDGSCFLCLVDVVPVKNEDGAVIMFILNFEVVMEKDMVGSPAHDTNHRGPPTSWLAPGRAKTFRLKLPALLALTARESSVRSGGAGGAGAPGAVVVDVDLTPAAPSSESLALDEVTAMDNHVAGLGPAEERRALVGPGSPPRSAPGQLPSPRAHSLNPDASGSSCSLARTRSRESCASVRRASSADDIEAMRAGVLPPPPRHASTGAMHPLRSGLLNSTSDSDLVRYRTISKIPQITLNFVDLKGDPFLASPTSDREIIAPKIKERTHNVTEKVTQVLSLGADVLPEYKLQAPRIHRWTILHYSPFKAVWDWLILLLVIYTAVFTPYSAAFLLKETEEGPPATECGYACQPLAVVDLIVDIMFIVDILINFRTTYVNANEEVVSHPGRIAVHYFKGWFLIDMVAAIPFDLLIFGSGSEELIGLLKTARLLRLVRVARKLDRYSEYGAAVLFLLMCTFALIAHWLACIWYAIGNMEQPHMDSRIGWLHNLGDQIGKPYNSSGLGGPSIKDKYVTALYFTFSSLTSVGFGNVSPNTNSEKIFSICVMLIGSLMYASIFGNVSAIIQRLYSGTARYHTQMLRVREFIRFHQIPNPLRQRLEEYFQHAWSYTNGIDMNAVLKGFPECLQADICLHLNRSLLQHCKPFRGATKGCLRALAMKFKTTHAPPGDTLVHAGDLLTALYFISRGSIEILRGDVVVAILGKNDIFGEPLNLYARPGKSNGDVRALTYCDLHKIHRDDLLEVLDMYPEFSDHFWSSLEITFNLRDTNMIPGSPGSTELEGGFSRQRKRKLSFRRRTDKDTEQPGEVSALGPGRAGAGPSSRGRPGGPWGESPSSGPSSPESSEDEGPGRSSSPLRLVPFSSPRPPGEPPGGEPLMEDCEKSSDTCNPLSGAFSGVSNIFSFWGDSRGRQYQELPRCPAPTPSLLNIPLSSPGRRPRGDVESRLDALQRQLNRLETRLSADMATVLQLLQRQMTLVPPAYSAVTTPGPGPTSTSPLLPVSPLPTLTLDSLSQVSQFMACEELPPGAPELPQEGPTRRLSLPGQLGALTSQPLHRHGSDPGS

[9] = system: L. sigmodontis adult worms; test: In vivo efficacy, L. sigmodontis-infected jirds; set-up: species or system jird (Meriones unguiculatus); details: 2 mg/kg QD 5d SC
[10] = system: L. sigmodontis adult worms; details: mouse, in vivo
[11] = supplement, read-out: measured logD
[12] = read-out: O. gutturosa EC50 μM (SD), ex vivo adult worm motility reduction, SD in brackets
[13] = read-out: O. gutturosa EC50 (uM) motility inhibition, supplement, SD in brackets in the PDF table

Compound	logD at 24 h ([1]; pH 7.4, read-out: logD)	logD at 24 h [1, 11]	EC50 [2, 12] [µM]	solubility kinetic at 24 h [3] [µM]	Human Microsomes [4]	Rat Microsomes [5]	EC50 [6] [µM]	EC50 [2, 13] [µM]	Rat Microsomes [7] [% remaining]	other results
Cc1cccnc1Nc1nc(-c2ncc(OC(C)C)cn2)ns1 [Compound 40, 3-(5-Isopropoxypyrimidin-2-yl)-N-(3-methylpyridin-2-yl)-1,2,4-thiadiazol-5-amine]	2.9	2.9	2.35	12.3 (≈ 4.04 µg/mL)	96^c % remaining	90^c % remaining	2.9			
Cc1cccnc1Nc1nc(-c2cc(C(=O)N(C)C)c(OC(C)C)cn2)ns1 [Compound 17]	2.3	2.3	0.63	154 (≈ 61.6 µg/mL)	91 % remaining	90 % remaining	0.5	0.626		
Cc1cccnc1Nc1n[nH]c(-c2ccc(OC3CCOCC3)cn2)n1 [Compound 8, 3-Methyl-N-{5-[5-(oxan-4-yloxy)pyridin-2-yl]-4H-1,2,4-triazol-3-yl}pyridin-2-amine]		2	0.01	202 (≈ 71.1 µg/mL)	92 % remaining		0.004	0.009		Rat Microsomes, (m) ([5]; Table 1, tested in the mouse not rat): 70 (m)^e % remaining
COc1ccc(Nc2nc(-c3ccccn3)ns2)nc1 [Compound 2]			1.7	62.7 (≈ 17.9 µg/mL)	90 % remaining		1.5		78	AUC(0-inf) (Mouse pharmacokinetics): 3.61 ± 0.86 µM·h; Cmax (Mouse pharmacokinetics): 1260 ± 290 nM; Tmax (Mouse pharmacokinetics): 1.3 ± 0.5 h; IC50 (THLE-2 cells): > 300000 nM
Cc1cccnc1Nc1nnc(-c2ccc(OC3CCOCC3)cn2)s1 [Compound 4, 3-Methyl-N-{5-[5-(oxan-4-yloxy)pyridin-2-yl]-1,3,4-thiadiazol-2-yl}pyridin-2-amine]		2.7	2.6	0.4 (≈ 0.148 µg/mL)	100 % remaining		2.8	> 12	89	
CC(C)Oc1cnc(-c2nsc(Nc3ncccc3C(C)C)n2)cc1C(F)(F)F [Compound 24, 3-(5-Isopropoxy-4-(trifluoromethyl)pyridin-2-yl)-N-(3-isopropylpyridin-2-yl)-1,2,4-thiadiazol-5-amine]	2.9	2.9	0.05	1.05 (≈ 0.445 µg/mL)	97 % remaining	96 % remaining	0.75	0.051		EC50 ([2]; read-out: O. gutturosa EC50, adult worm motility, bound stated): < 0.1 µM
CC(C)Oc1ccc(-c2nsc(Nc3ncccc3C(N)=O)n2)nc1 [Compound 59, 2-((3-(5-Isopropoxypyridin-2-yl)-1,2,4-thiadiazol-5-yl)amino)nicotinamide]	1.6	1.6	2.6	0.3 (≈ 0.107 µg/mL)			3.4			Papp A→B (P-glycoprotein (MDR1)): 0.79 ×10⁻⁶ cm/s; Papp A→B (P-gp (MDR1)): 0.8 ×10⁻⁶ cm/s; IC50 [8]: > 30000 nM
Cc1cccnc1Nc1nnc(-c2ccc(OC3CCOCC3)cn2)o1 [Compound 7, (3-Methyl-pyridin-2-yl)-{5-[5-(tetrahydro-pyran-4-yloxy)-pyridin-2-yl]-[1,3,4]oxadiazol-2-yl}-amine]		1.55	0.94	12.8 (≈ 4.52 µg/mL)	83 % remaining		6.5	0.935	39	
Flubendazole [FBZ, reference compound]										adult worm burden reduction ([9]; jirds infected SC with 40 L3 larvae (Fig 2C)): -100%; reduction of adult worm burden ([9]; patent, naturally infected jirds): -100%; adult worm burden reduction [10]: -98.8% and -100%
CC(C)Oc1cnc(-c2nsc(Nc3ncccc3N(C)C)n2)cc1C(F)(F)F [Compound 34]	2.9	2.9	0.04		98 % remaining	93 % remaining	0.53	0.036		fold less soluble than 47 ([3]; 24 h): 10 fold
Cc1cccnc1Nc1nsc(-c2ccc(OC3CCOCC3)cn2)n1 [Compound 5, N-(3-Methylpyridin-2-yl)-5-(5-((tetrahydro-2h-pyran-4-yl)oxy)pyridin-2-yl)-1,2,4-thiadiazol-3-amine]		2.15		182 (≈ 67.2 µg/mL)	77 % remaining				89	
